Measured values: patent US20230339854A1, “Negative Allosteric Modulation of GluN3-Containing N-Methyl-D-Aspartate Receptors” (Emory University, priority 2020, published 2023)

biological target: T1, human GluN1^FA,TL/GluN3A receptors (Homo sapiens, UniProt Q8TCU5); assay: Two-electrode voltage-clamp recordings of GluN1^FA,TL/GluN3A receptors in Xenopus oocytes; assay type: cell-based; conditions: read-out: hGluN1^FA,TL/hGluN3A (100 × Idrug/Icontrol at 30 μM drug)
T1 construct: Human GluN3A (NP_597702.2) and rat GluN3B (NP_579842.2) were synthesized and subcloned into SP6 plasmids; expressed in transfected cells; host or cells: Xenopus laevis oocytes, cRNA injection (GluN1:GluN3 1:3)
T1 sequence (Q8TCU5 24-1115, other chains not shown): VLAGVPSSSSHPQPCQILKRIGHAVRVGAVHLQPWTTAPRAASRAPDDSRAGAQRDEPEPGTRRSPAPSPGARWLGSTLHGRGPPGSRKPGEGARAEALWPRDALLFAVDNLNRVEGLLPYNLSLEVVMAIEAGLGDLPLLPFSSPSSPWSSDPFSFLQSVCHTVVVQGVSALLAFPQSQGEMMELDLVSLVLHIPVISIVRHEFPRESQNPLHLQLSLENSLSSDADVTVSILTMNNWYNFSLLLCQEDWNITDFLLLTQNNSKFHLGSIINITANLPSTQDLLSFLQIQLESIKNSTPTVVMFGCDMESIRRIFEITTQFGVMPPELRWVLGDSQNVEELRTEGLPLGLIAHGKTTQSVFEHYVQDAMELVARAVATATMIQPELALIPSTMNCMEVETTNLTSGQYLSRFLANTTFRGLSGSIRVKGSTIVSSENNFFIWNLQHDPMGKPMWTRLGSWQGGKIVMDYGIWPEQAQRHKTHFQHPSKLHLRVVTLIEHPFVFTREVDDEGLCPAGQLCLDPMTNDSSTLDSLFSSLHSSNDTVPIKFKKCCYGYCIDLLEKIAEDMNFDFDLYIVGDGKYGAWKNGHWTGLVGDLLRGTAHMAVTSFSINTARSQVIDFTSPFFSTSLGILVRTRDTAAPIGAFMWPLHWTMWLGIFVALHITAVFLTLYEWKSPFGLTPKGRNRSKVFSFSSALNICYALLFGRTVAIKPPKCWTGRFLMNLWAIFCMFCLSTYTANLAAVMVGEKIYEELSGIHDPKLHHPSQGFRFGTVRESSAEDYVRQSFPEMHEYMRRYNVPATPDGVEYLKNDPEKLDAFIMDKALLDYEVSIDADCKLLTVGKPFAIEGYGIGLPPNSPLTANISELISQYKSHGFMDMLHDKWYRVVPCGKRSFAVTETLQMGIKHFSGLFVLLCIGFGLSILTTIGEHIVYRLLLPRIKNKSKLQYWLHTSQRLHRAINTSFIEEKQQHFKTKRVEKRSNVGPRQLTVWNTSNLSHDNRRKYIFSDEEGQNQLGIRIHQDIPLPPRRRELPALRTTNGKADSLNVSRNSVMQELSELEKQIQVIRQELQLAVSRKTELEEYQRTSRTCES
Excerpt: cDNA encoding human wild-type (WT) GluN1-1a (GenBank accession numbers NP_015566, hereafter GluN1) and rat GluN1-1a (NP_058706.1) were synthesized and subcloned into pGEMHE plasmid; some experiments used the rat splice variant GluN1-4a (NP_001257531.1). Human GluN3A (NP_597702.2) and rat GluN3B (NP_579842.2) were synthesized and subcloned into SP6 plasmids. For most experiments, human GluN1 was co-expressed with human GluN3A, except for mutagenesis experiments where rat GluN1 was co-expressed with human GluN3A. Rat GluN1-4a was always expressed with rat GluN3B.
Defolliculated Xenopus laevis oocytes (stage V-VI) were obtained from Ecocyte BioScience (Austin, Texas), or prepared from commercially available Xenopus ovaries (Xenopus 1, Dexter, MI) as previously described (Hansen, et al., Mol. Pharmacol., 2013). A Drummond Nanoject II (Broomall, PA) was used to inject oocytes with cRNAs encoding GluN1 and GluN3 at a 1:3 ratio in RNase-free water. The cRNA was diluted as needed to give responses with amplitudes ranging between 200-2000 nA (0.2-10 ng total cRNA). Following cRNA injection, the oocytes were stored at 15-19° C. in Barth's solution that contained (in mM) 88 NaCl, 2.4 NaHCO3, 1 KCl, 0.33 Ca(NO3)2, 0.41 CaCl2), 0.82 MgSO4, and 5 Tris-HCl (pH 7.4 with NaOH), supplemented with 1 μg/ml streptomycin (Invitrogen, Carlsbad, CA) and 100 μg/ml gentamicin (Fisher Scientific, Pittsburgh, PA). Recordings were performed 2-5 days following cRNA microinjection at room temperature (23° C.) using a two-electrode voltage-clamp amplifier (OC725, Warner Instrument, Hamilton, CT). The signal was low-pass filtered at 10-20 Hz (4-pole, −3 dB Bessel) and digitized at the Nyquist rate using PCI-6025E or USB-6212 BNC data acquisition boards (National Instruments, Austin, TX) using EasyOocyte (http://www.easyoocyte.io/). Oocytes were placed in a custom-made chamber and continuously perfused (2.5 ml/min) with oocyte recording solution containing (in mM) 90 NaCl, 1 KCl, 10 HEPES, 0.5-1.0 BaCl2, and 0.01 EDTA (pH 7.4 with NaOH). Solutions were applied by gravity, and solution exchange was controlled through a rotary valve (Hamilton, Reno, NV). Recording electrodes were filled with 0.3-3.0 M KCl, and current responses were recorded at a holding potential of −40 mV.
Response (%)=(100−minimum)/(1+([concentration]/IC50)^nH)+minimum (2) • where nH is the Hill slope, IC50 is the concentration that produces a half-maximal effect, and minimum is the degree of residual inhibition at a saturating concentration of the negative allosteric modulator.
The afore-referenced compounds were screened in the same assay as EU1180-438 to determine their effects on hGluN1^FA,TL/hGluN3A receptors. Selected compounds that inhibited by more than 20% at the concentration at which they were initially evaluated (either 10 or 30 μM) were analyzed further, and a dose-response curve was generated to determine their IC50 values.

remaining activity at 30 µM | Compound
89% | COc1ccc(C(COc2cccc(C)n2)N2Cc3cc(F)ccc3C2=O)cc1 (stereo not drawn) [EU1180-598, 5-Fluoro-2-(1-(4-methoxyphenyl)-2-((6-methylpyridin-2-yl)oxy)ethyl)isoindolin-1-one]
64% | COc1ccc(OCC(c2ccc(OC)cc2)N2Cc3ccc(Br)cc3C2=O)cc1 (stereo not drawn) [EU1180-520, 6-Bromo-2-(2-(4-methoxyphenoxy)-1-(4-methoxyphenyl)ethyl)isoindolin-1-one]
91% | CC(C)Oc1ccc(C(COc2ccc(C(F)(F)F)cc2)N2Cc3ccc(C(F)(F)F)cc3C2=O)cc1 (stereo not drawn) [EU1180-572, 2-(1-(4-isopropoxyphenyl)-2-(4-(trifluoromethyl)phenoxy)ethyl)-6-(trifluoromethyl)isoindolin-1-one]
62% | COc1ccc(C(COc2cccc(C)n2)N2Cc3ccc(Br)cc3C2=O)c(F)c1 (stereo not drawn) [EU1180-607, 6-Bromo-2-(1-(2-fluoro-4-methoxyphenyl)-2-((6-methylpyridin-2-yl)oxy)ethyl)isoindolin-1-one]
100% | Cc1cccc(OCC(c2ccc(OC(C)C)cc2)N2Cc3cc(Br)ccc3C2=O)n1 (stereo not drawn) [EU1180-515, 5-bromo-2-(1-(4-isopropoxyphenyl)-2-((6-methylpyridin-2-yl)oxy)ethyl)isoindolin-1-one]
92% | COc1ccc(OCC(c2ccc(OC)cc2)N2Cc3cc(Cl)ccc3C2=O)cc1 (stereo not drawn) [EU1180-517, 5-Chloro-2-(2-(4-methoxyphenoxy)-1-(4-methoxyphenyl)ethyl)isoindolin-1-one]
94% | COc1ccc(OCC(c2ccc(OC)c(OC)c2)N2Cc3cc(F)ccc3C2=O)cc1 (stereo not drawn) [EU1180-528, 2-(1-(3,4-Dimethoxyphenyl)-2-(4-methoxyphenoxy)ethyl)-5-fluoroisoindolin-1-one]
100% | CC(C)Oc1ccc(C(COc2ccc(OC(F)(F)F)cc2)N2Cc3cc(Cl)ccc3C2=O)cc1 (stereo not drawn) [EU1180-541, 5-chloro-2-(1-(4-isopropoxyphenyl)-2-(4-(trifluoromethoxy)phenoxy)ethyl)isoindolin-1-one]
84% | COc1ccc(OCC(c2ccc(OC)c(OC)c2)N2Cc3ccc(F)cc3C2=O)cc1 (stereo not drawn) [EU1180-529, 2-(1-(3,4-Dimethoxyphenyl)-2-(4-methoxyphenoxy)ethyl)-6-fluoroisoindolin-1-one]
92% | COc1ccc(C(COc2cccc(C)n2)N2Cc3cc(Br)ccc3C2=O)cc1 (stereo not drawn) [EU1180-596, 5-Bromo-2-(1-(4-methoxyphenyl)-2-((6-methylpyridin-2-yl)oxy)ethyl)isoindolin-1-one]
67% | CCOc1ccc(OCC(c2ccc(OC(C)C)cc2)N2Cc3ccc(Cl)cc3C2=O)cc1 (stereo not drawn) [EU1180-588, 6-chloro-2-(2-(4-ethoxyphenoxy)-1-(4-isopropoxyphenyl)ethyl)isoindolin-1-one]
66% | COc1ccc(C(COc2cccc(C)n2)N2Cc3cc(Br)ccc3C2=O)c(F)c1 (stereo not drawn) [EU1180-606, 5-Bromo-2-(1-(2-fluoro-4-methoxyphenyl)-2-((6-methylpyridin-2-yl)oxy)ethyl)isoindolin-1-on]
100% | CC(C)Oc1ccc(C(COc2ccc(OC(F)(F)F)cc2)N2Cc3ccc(Cl)cc3C2=O)cc1 (stereo not drawn) [EU1180-540, 6-chloro-2-(1-(4-isopropoxyphenyl)-2-(4-(trifluoromethoxy)phenoxy)ethyl)isoindolin-1-one]
41% | COc1ccc(OCC(c2ccc(OC)cc2F)N2Cc3ccccc3C2=O)cc1 (stereo not drawn) [EU1180-530, 2-(1-(2-Fluoro-4-methoxyphenyl)-2-(4-methoxyphenoxy)ethyl)isoindolin-1-one]
102% | COc1ccc(OCC(c2ccc(OC)c(OC)c2)N2Cc3cc(Cl)ccc3C2=O)cc1 (stereo not drawn) [EU1180-524, 5-Chloro-2-(1-(3,4-dimethoxyphenyl)-2-(4-methoxyphenoxy)ethyl)isoindolin-1-one]
79% | COc1ccc(C(COc2cccc(C)n2)N2Cc3cc(F)ccc3C2=O)c(F)c1 (stereo not drawn) [EU1180-601, 5-Fluoro-2-(1-(2-fluoro-4-methoxyphenyl)-2-((6-methylpyridin-2-yl)oxy)ethyl)isoindolin-1-one]
118% | CC(C)Oc1ccc(C(COc2ccc(C(F)(F)F)cc2)N2Cc3cc(Br)ccc3C2=O)cc1 (stereo not drawn) [EU1180-578, 5-bromo-2-(1-(4-isopropoxyphenyl)-2-(4-(trifluoromethyl)phenoxy)ethyl)isoindolin-1-one]
83% | COc1ccc(C(COc2cccc(C)n2)N2Cc3ccc(C(F)(F)F)cc3C2=O)cc1 (stereo not drawn) [EU1180-593, 2-(1-(4-Methoxyphenyl)-2-((6-methylpyridin-2-yl)oxy)ethyl)-6-(trifluoromethyl)isoindolin-1-one]
49% | COc1ccc(OCC(c2ccc(OC)cc2F)N2Cc3ccc(Cl)cc3C2=O)cc1 (stereo not drawn) [EU1180-533, 6-Chloro-2-(1-(2-fluoro-4-methoxyphenyl)-2-(4-methoxyphenoxy)ethyl)isoindolin-1-one]
101% | CC(C)Oc1ccc(C(COc2ccc(OC(F)(F)F)cc2)N2Cc3cc(Br)ccc3C2=O)cc1 (stereo not drawn) [EU1180-554, 5-bromo-2-(1-(4-isopropoxyphenyl)-2-(4-(trifluoromethoxy)phenoxy)ethyl)isoindolin-1-one]
95% | COc1ccc(OCC(c2ccc(OC)cc2F)N2Cc3cc(Cl)ccc3C2=O)cc1 (stereo not drawn) [EU1180-532, 5-Chloro-2-(1-(2-fluoro-4-methoxyphenyl)-2-(4-methoxyphenoxy)ethyl)isoindolin-1-one]
93% | COc1ccc(OCC(c2c(F)cc(OC)cc2F)N2Cc3ccc(Br)cc3C2=O)cc1 (stereo not drawn) [EU1180-550, 6-Bromo-2-(1-(2,6-difluoro-4-methoxyphenyl)-2-(4-methoxyphenoxy)ethyl)isoindolin-1-one]
81% | COc1ccc(C(COc2cccc(C)n2)N2Cc3cc(Cl)ccc3C2=O)c(F)c1 (stereo not drawn) [EU1180-604, 5-Chloro-2-(1-(2-fluoro-4-methoxyphenyl)-2-((6-methylpyridin-2-yl)oxy)ethyl)isoindolin-1-one]
99% | COc1ccc(OCC(c2ccc(OC)cc2F)N2Cc3cc(Br)ccc3C2=O)cc1 (stereo not drawn) [EU1180-534, 5-Bromo-2-(1-(2-fluoro-4-methoxyphenyl)-2-(4-methoxyphenoxy)ethyl)isoindolin-1-one]
87% | COc1ccc(C(COc2cccc(C)n2)N2Cc3ccccc3C2=O)c(F)c1 (stereo not drawn) [EU1180-600, 2-(1-(2-Fluoro-4-methoxyphenyl)-2-((6-methylpyridin-2-yl)oxy)ethyl)isoindolin-1-one]
57% | COc1ccc(C(COc2cccc(C)n2)N2Cc3ccc(F)cc3C2=O)cc1 (stereo not drawn) [EU1180-599, 6-Fluoro-2-(1-(4-methoxyphenyl)-2-((6-methylpyridin-2-yl)oxy)ethyl)isoindolin-1-one]
101% | COc1ccc(OCC(c2ccc(OC)c(OC)c2)N2Cc3cc(Br)ccc3C2=O)cc1 (stereo not drawn) [EU1180-526, 5-Bromo-2-(1-(3,4-dimethoxyphenyl)-2-(4-methoxyphenoxy)ethyl)isoindolin-1-one]
87% | Cc1cccc(OCC(c2ccc(OC(C)C)cc2)N2Cc3cc(F)ccc3C2=O)n1 (stereo not drawn) [EU1180-513, 5-fluoro-2-(1-(4-isopropoxyphenyl)-2-((6-methylpyridin-2-yl)oxy)ethyl)isoindolin-1-one]
90% | COc1ccc(OCC(c2c(F)cc(OC)cc2F)N2Cc3ccc(Cl)cc3C2=O)cc1 (stereo not drawn) [EU1180-548, 6-Chloro-2-(1-(2,6-difluoro-4-methoxyphenyl)-2-(4-methoxyphenoxy)ethyl)isoindolin-1-one]
101% | CC(C)Oc1ccc(C(COc2ccc(OC(F)(F)F)cc2)N2Cc3ccc(Br)cc3C2=O)cc1 (stereo not drawn) [EU1180-553, 6-bromo-2-(1-(4-isopropoxyphenyl)-2-(4-(trifluoromethoxy)phenoxy)ethyl)isoindolin-1-one]
